The target in data set [1] is nicotinic ACh receptors comprised of α4 and β2 subunits (3H-cytisine binding site) (Rattus norvegicus, UniProt P09483+P12390). The data set is described as follows: In vitro inhibition of 3H-cytisine binding. As for the experimental part:
In vitro inhibition of ^3H-cytisine binding
The predominant subtype with high affinity for nicotine is comprised of α4 and β2 subunits. nAChRs of the latter type can selectively be labelled by the nicotine agonist ^3H-cytisine.
Preparations are performed at 0-4° C. unless otherwise indicated. […] The homogenate is centrifuged at 27,000×g for 10 min. The supernatant is discarded and the pellet is resuspended in fresh buffer and centrifuged a second time. The final pellet is resuspended in fresh buffer (35 ml per g of original tissue) and used for binding assays.
Aliquots of 500 μl homogenate are added to 25 μl of test solution and 25 μl of ^3H-cytisine (1 nM, final concentration), mixed and incubated for 90 min at 2° C. Non-specific binding is determined using (−)-nicotne (100 μM, final concentration). After incubation the samples are added 5 ml of ice-cold buffer and poured directly onto Whatman GF/C glass fibre filters under suction and immediately washed with 2×5 ml ice-cold buffer. The amount of radioactivity on the filters is determined by conventional liquid scintillation counting. Specific binding is total binding minus non-specific binding.

Data set [2] deals with nAChR formed by the α7 subunit (3H-α-bungarotoxin binding site) (Rattus norvegicus, UniProt Q05941). The experiment in a line: biochemical.
Sequence of nAChR formed by the α7 subunit (3H-α-bungarotoxin binding site) (Q05941 23-502): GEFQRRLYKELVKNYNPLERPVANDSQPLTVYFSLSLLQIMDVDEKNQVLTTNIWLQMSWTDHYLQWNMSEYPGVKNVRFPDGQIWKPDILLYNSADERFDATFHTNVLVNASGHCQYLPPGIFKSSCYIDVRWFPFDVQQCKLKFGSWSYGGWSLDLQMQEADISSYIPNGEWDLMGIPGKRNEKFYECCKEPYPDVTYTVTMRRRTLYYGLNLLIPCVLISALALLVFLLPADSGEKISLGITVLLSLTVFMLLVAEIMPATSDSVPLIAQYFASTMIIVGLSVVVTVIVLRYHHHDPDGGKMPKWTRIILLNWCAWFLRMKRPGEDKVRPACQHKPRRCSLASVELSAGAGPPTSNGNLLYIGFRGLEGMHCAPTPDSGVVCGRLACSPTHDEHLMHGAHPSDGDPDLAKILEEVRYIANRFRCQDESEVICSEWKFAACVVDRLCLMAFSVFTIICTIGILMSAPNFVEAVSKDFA
The conditions of data set [3]: approximate potency relative to morphine; cited from earlier work.
Setting [4] is: rat cerebral cortex homogenate, 1 nM 3H-cytisine, 90 min at 2° C., read-out: 3H-cytisine IC50.
[5] abbreviates: read-out: 3H-α-bungarotoxin IC50.

As usually defined, the IC50 is the midpoint of a concentration-inhibition curve. Usually melting point stands for the temperature, or range, at which the solid turns liquid.

Structures can show the parent of a compound that is named as a salt. Where two headings read alike, the source gives them in different places.

Sequence of nicotinic ACh receptors comprised of α4 and β2 subunits (3H-cytisine binding site) (P09483 31-630): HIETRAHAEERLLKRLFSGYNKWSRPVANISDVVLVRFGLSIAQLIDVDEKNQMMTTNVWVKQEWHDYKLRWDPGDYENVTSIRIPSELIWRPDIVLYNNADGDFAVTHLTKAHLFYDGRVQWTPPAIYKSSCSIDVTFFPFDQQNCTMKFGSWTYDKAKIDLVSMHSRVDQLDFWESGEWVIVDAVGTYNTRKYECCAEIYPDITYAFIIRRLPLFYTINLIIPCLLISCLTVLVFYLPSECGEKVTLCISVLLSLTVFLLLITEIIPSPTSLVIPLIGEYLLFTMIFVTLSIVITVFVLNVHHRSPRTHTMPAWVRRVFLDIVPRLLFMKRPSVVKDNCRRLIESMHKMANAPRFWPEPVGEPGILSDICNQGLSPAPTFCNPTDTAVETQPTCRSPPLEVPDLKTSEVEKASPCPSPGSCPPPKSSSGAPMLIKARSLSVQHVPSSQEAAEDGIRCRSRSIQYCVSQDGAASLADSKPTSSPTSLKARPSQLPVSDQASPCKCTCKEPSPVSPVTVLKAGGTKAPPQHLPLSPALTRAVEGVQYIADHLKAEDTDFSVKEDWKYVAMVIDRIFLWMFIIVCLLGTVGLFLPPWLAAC
Sequence of nicotinic ACh receptors comprised of α4 and β2 subunits (3H-cytisine binding site) (P12390 25-500): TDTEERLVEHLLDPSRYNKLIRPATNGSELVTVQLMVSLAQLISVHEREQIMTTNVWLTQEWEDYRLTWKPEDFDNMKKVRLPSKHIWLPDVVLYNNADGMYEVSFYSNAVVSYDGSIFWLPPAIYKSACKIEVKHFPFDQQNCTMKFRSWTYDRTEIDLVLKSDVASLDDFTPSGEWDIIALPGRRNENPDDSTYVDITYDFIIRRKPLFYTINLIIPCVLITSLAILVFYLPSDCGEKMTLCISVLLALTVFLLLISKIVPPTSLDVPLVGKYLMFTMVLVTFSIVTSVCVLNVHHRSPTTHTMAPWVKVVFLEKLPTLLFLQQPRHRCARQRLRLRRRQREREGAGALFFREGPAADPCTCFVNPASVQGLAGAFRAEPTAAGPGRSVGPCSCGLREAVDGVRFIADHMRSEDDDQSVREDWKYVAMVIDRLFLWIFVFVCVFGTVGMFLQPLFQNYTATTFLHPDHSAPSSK

For the compound `CCSc1cncc(C2CCCCCCN2)c1` (racemic) [Compound 6a, (R,S)-1-H-2-(5-thioethyl-3-pyridyl)azacyclooctane], the IC50 in data set [1] (setting [4]) worked out at 1 µM. Consider `CN1CCCCCCC1c1cccnc1` (racemic) [Compound 1b, (R,S)-1-Methyl-2-(3-pyridyl)azacyclooctane], for which the values for the IC50 in data set [2] (setting [5]) and in data set [1] were 67 µM and 0.56 µM, respectively. `c1cncc(C2CCCCCCN2)c1` (racemic) (as salt: fumaric acid salt) [Compound 1a, (R,S)-1-H-2-(3-pyridyl)azacyclooctane fumaric acid salt] displayed a melting point of 141 to 142 °C. For `c1cncc(C2=NCCCCCC2)c1` [Compound 1c, 2-(3-Pyridyl)azacyclooct-1-ene], the IC50 in data set [2] (setting [5]) turned out to be 1.4 µM; in data set [1] it was 0.059 µM. Turning to `c1ccc2ncc(C3CCCCCCN3)cc2c1` (racemic) [Compound 3a, (R,S)-1-H-2-(3-quinolinyl)azacyclooctane fumaric acid salt], the IC50 in data set [2] is > 30 µM; in data set [1] (setting [4]) it was 1.3 µM. `CCSc1cncc(C2CCCCCCN2C)c1` (racemic) (as salt: fumaric acid salt) [Compound 5b, (R,S)-1-Methyl-2-(5-thioethyl-3-pyridyl)azacyclooctane fumaric acid salt] registered a melting point of 143.5 to 145.5 °C. Consider `Clc1ccc(C2CC3CCC2N3)cn1` (centres unmarked) [Epibatidine], for which the “analgesic potency, times that of morphine” value in data set [3] is on record as ~500 times. As for `CCSc1cncc(C2CCCCCCN2C)c1` (racemic) [Compound 5b, (R,S)-1-Methyl-2-(5-thioethyl-3-pyridyl)azacyclooctane fumaric acid salt], the IC50 in data set [1] (setting [4]) worked out at 1.95 µM. With `c1cncc(C2CCCCCCN2)c1` (racemic) [Compound 1a, (R,S)-1-H-2-(3-pyridyl)azacyclooctane fumaric acid salt], the IC50 came out at 2 µM in data set [2] (setting [5]) and 0.2 µM in data set [1]. For `CCSc1cncc(C2CCCCCN2)c1` (racemic) (as salt: fumaric acid salt) [Compound 5a, (R,S)-1-H-2-(5-thioethyl-3-pyridyl)azacycloheptane fumaric acid salt], the melting point lay within 159 to 161 °C. `c1ccc2ncc(C3CCCCCCN3)cc2c1` (racemic) (as salt: fumaric acid salt) [Compound 3a, (R,S)-1-H-2-(3-quinolinyl)azacyclooctane fumaric acid salt]: the melting point fell in the range of 172 to 174 °C. For `CCSc1cncc(C2CCCCCN2)c1` (racemic) [Compound 5a, (R,S)-1-H-2-(5-thioethyl-3-pyridyl)azacycloheptane fumaric acid salt], the IC50 in data set [2] is > 30 µM; in data set [1] (setting [4]), 4.3 µM.

The values are drawn from patent US6420395B1, “Azacyclooctane and heptane derivatives, their preparation and use in therapy” (Neurosearch A/S, priority 1997, dated 2002).
